Calls of active or inactive are those of the source. No rule for the calls is given here.
Tested on: CCRIS mutagenicity, Ames/micronucleus/aberration tests
Assay: CCRIS mutagenicity studies

Measured: mutagenic call

CCN(CC)c1ccccc1
inactive: Test System: AMES SALMONELLA TYPHIMURIUM, Strain/Indicator: TA97, Metabolic Activation: HAMSTER, LIVER, S-9, AROCLOR 1254 (10 OR 30%), Method: PREINCUBATION inactive; negative | Test System: AMES SALMONELLA TYPHIMURIUM, Strain/Indicator: TA97, Metabolic Activation: NONE, Method: PREINCUBATION inactive; negative | Test System: AMES SALMONELLA TYPHIMURIUM, Strain/Indicator: TA97, Metabolic Activation: RAT, LIVER, S-9, AROCLOR 1254 (10 OR 30%), Method: PREINCUBATION inactive; negative | Test System: AMES SALMONELLA TYPHIMURIUM, Strain/Indicator: TA98, Metabolic Activation: HAMSTER, LIVER, S-9, AROCLOR 1254 (10 OR 30%), Method: PREINCUBATION inactive; negative | Test System: AMES SALMONELLA TYPHIMURIUM, Strain/Indicator: TA98, Metabolic Activation: HAMSTER, LIVER, S-9, PHENOBARBITAL AND BETA-NAPHTHOFLAVONE, Method: PREINCUBATION inactive; negative | Test System: AMES SALMONELLA TYPHIMURIUM, Strain/Indicator: TA98, Metabolic Activation: NONE, Method: PREINCUBATION inactive; negative | Test System: AMES SALMONELLA TYPHIMURIUM, Strain/Indicator: TA98, Metabolic Activation: RAT, LIVER, S-9, AROCLOR 1254 (10 OR 30%), Method: PREINCUBATION inactive; negative | Test System: AMES SALMONELLA TYPHIMURIUM, Strain/Indicator: TA100, Metabolic Activation: HAMSTER, LIVER, S-9, AROCLOR 1254 (10 OR 30%), Method: PREINCUBATION inactive; negative | Test System: AMES SALMONELLA TYPHIMURIUM, Strain/Indicator: TA100, Metabolic Activation: HAMSTER, LIVER, S-9, PHENOBARBITAL AND BETA-NAPHTHOFLAVONE, Method: PREINCUBATION inactive; negative | Test System: AMES SALMONELLA TYPHIMURIUM, Strain/Indicator: TA100, Metabolic Activation: NONE, Method: PREINCUBATION inactive; negative | Test System: AMES SALMONELLA TYPHIMURIUM, Strain/Indicator: TA100, Metabolic Activation: RAT, LIVER, S-9, AROCLOR 1254 (10 OR 30%), Method: PREINCUBATION inactive; negative | Test System: AMES SALMONELLA TYPHIMURIUM, Strain/Indicator: TA102, Metabolic Activation: HAMSTER, LIVER, S-9, PHENOBARBITAL AND BETA-NAPHTHOFLAVONE, Method: PREINCUBATION inactive; negative | Test System: AMES SALMONELLA TYPHIMURIUM, Strain/Indicator: TA102, Metabolic Activation: NONE, Method: PREINCUBATION inactive; negative | Test System: AMES SALMONELLA TYPHIMURIUM, Strain/Indicator: TA104, Metabolic Activation: HAMSTER, LIVER, S-9, PHENOBARBITAL AND BETA-NAPHTHOFLAVONE, Method: PREINCUBATION inactive; negative | Test System: AMES SALMONELLA TYPHIMURIUM, Strain/Indicator: TA104, Metabolic Activation: NONE, Method: PREINCUBATION inactive; negative | Test System: AMES SALMONELLA TYPHIMURIUM, Strain/Indicator: TA1535, Metabolic Activation: HAMSTER, LIVER, S-9, AROCLOR 1254 (10 OR 30%), Method: PREINCUBATION inactive; negative | Test System: AMES SALMONELLA TYPHIMURIUM, Strain/Indicator: TA1535, Metabolic Activation: HAMSTER, LIVER, S-9, PHENOBARBITAL AND BETA-NAPHTHOFLAVONE, Method: PREINCUBATION inactive; negative | Test System: AMES SALMONELLA TYPHIMURIUM, Strain/Indicator: TA1535, Metabolic Activation: NONE, Method: PREINCUBATION inactive; negative | Test System: AMES SALMONELLA TYPHIMURIUM, Strain/Indicator: TA1535, Metabolic Activation: RAT, LIVER, S-9, AROCLOR 1254 (10 OR 30%), Method: PREINCUBATION inactive; negative | Test System: AMES SALMONELLA TYPHIMURIUM, Strain/Indicator: TA1537, Metabolic Activation: HAMSTER, LIVER, S-9, PHENOBARBITAL AND BETA-NAPHTHOFLAVONE, Method: PREINCUBATION inactive; negative | Test System: AMES SALMONELLA TYPHIMURIUM, Strain/Indicator: TA1537, Metabolic Activation: NONE, Method: PREINCUBATION inactive; negative | Test System: E. COLI, Strain/Indicator: WP2UVRA/PKM101, Metabolic Activation: HAMSTER, LIVER, S-9, PHENOBARBITAL AND BETA-NAPHTHOFLAVONE, Method: PREINCUBATION inactive; negative | Test System: E. COLI, Strain/Indicator: WP2UVRA/PKM101, Metabolic Activation: NONE, Method: PREINCUBATION inactive; negative | Test System: E. COLI, Strain/Indicator: WP2UVRA, Metabolic Activation: HAMSTER, LIVER, S-9, PHENOBARBITAL AND BETA-NAPHTHOFLAVONE, Method: PREINCUBATION inactive; negative | Test System: E. COLI, Strain/Indicator: WP2UVRA, Metabolic Activation: NONE, Method: PREINCUBATION inactive; negative | Test System: UDS RODENT HEPATOCYTES, Strain/Indicator: THY INCORP (NON-S-PHASE), Metabolic Activation: NONE, Method: AUTORADIOGRAPHY inactive; negative
